Data published in patent US8198287B2, “Substituted heteroaryl pyridopyrimidone derivatives” (Sanofi-Aventis, priority 2006, dated 2012).

Target: GSK3β (Homo sapiens, UniProt P49841)
Test: Inhibitory activity against GSK3β (33P-ATP phosphorylation of prephosphorylated GS1 peptide; two alternative protocols)
Assay type: biochemical
Conditions: first or second protocol, not specified per compound
Procedure: Inhibitory Activity of the Medicament of the Present Invention Against GSK3β
Two different protocols can be used.
In a first protocol: 7.5 μM of prephosphorylated GS1 peptide and 10 μM ATP (containing 300,000 cpm of ^33P-ATP) were incubated in 25 mM Tris-HCl, pH 7.5, 0.6 mM DTT, 6 mM MgCl2, 0.6 mM EGTA, 0.05 mg/ml BSA buffer for 1 hour at room temperature in the presence of GSK3beta (total reaction volume: 100 microliters).
In a second protocol: 4.1 μM of prephosphorylated GS1 peptide and 42 μM ATP (containing 260,000 cpm ^33P-ATP) were incubated in 80 mM Mes-NaOH, pH 6.5, 1 mM Mg acetate, 0.5 mM EGTA, 5 mM 2-mercaptoethanol, 0.02% Tween 20, 10% glycerol buffer for 2 hours at room temperature in the presence of GSK3beta.
Inhibitors were solubilized in DMSO (final solvent concentration in the reaction medium, 1%).
The reaction was stopped with 100 microliters of a solution made of 25 g polyphosphoric acid (85% P2O5), 126 ml 85% H3PO4, H2O to 500 ml and then diluted to 1:100 before use. An aliquot of the reaction mixture was then transferred to Whatman P81 cation exchange filters and rinsed with the solution described above. Incorporated ^33P radioactivity was determined by liquid scintillation spectrometry.
The phosphorylated GS-1 peptide had the following sequence:
NH2—[…](P)EDEE-COOH. (Woodgett, J. R. (1989) Analytical Biochemistry 180, 237-241.

Chain of GSK3β (P49841 whole entry): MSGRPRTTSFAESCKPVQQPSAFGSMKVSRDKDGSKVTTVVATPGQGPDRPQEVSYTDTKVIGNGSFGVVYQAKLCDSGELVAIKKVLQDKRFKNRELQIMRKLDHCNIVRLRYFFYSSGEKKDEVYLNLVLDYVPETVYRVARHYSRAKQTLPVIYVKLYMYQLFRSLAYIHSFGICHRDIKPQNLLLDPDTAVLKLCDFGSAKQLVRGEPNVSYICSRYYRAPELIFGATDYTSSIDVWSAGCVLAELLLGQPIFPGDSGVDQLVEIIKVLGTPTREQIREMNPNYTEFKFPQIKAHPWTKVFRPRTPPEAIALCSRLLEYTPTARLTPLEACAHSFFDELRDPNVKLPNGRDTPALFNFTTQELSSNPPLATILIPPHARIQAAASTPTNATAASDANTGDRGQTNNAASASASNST

| Compound | IC50 |
| --- | --- |
| Nc1c(Cl)cc(C(=O)NC2CCCn3c2nc(-c2ccncc2)cc3=O)c2c1OCCO2 (racemic) [13 of table 1, (+/−)8-Amino-7-chloro-2,3-dihydro-benzo[1,4]dioxine-5-carboxylic acid (4-oxo-2-pyridin-4-yl-6,7,8,9-tetrahydro-4H-pyrido[1,2-a]pyrimidin-9-yl)-amide] | 14 nM |
| CSc1ncc(Cl)c(C(=O)NC2CCn3c2nc(-c2ccncn2)cc3=O)n1 (racemic) [14 of table 2, (+/−)5-Chloro-2-methylsulfanyl-pyrimidine-4-carboxylic acid (4-oxo-2-pyrimidin-4-yl-4,6,7,8-tetrahydro-pyrrolo[1,2-a]pyrimidin-8-yl) -amide] | 4 nM |
| O=C(NC1CCCCn2c1nc(-c1ccncn1)cc2=O)c1cccc(Cl)n1 (racemic) [53 of table 3, (+/−)6-Chloro-pyridine-2-carboxylic acid (4-oxo-2-pyrimidin-4-yl-4,6,7,8,9,10-hexahydro-pyrimido[1,2-a]azepin-10-yl)-amide] | 5 nM |
